Data: US9220775B2, “Binding molecules specific for HER3 and uses thereof” (Medlmmune LLC, priority 2011, dated 2015)

Columns and labels:
[1] = system: HER3, pHER3 and pAKT in SW620, SW480, Colo205, LOVO, HCT15 and Caco-2 cells; test: HRG ligand-dependent signaling in CRC tumor cell lines (Western blot); assay type: cell-based, human; conditions: antibodies 10 μg/mL, gefitinib 5 μM, HRG 50 ng/mL
Method: In the presence of the HER3 ligand heregulin (HRG), HER3 heterodimerizes with EGFR or HER2, which leads to phosphorylation of HER3 and transmission of an oncogenic signal via phosphoinositide 3 kinase (PI3K) and protein kinase B (PKB), also known as AKT. A collection of CRC models were characterized to determine which receptor tyrosine kinase, EGFR or HER2, is the major driver of signaling through HER3. […] Briefly, cells were seeded into 24-well plates at a density of 1.5×10^5 cells per well. […] After 5-6 hours of incubation at 37° C., HRG was added at 50 ng/mL into one set of cells for 15 minutes at 37° C. All cells were then washed with cold PBS and lysed by the addition of 60 μL of 2×SDS (sodium dodecyl sulfate) sample buffer (Invitrogen). Lysates were transferred to 1.5 mL tubes and boiled for 5 minutes followed by chilling on ice for 2 minutes. Equal volumes (20 μL) of protein samples were resolved in NuPAGE Novex Bis-Tris gels (Invitrogen) before transfer to polyvinylidene fluoride (PVDF) membranes (Invitrogen). […] After washing, protein bands were detected on X-ray film by using SuperSignal West Pico Chemiluminescent Substrate (Pierce/Thermo Scientific).

BT-474 xenograft tumors = test: Orthotopic human BT-474 breast cancer xenograft model; assay type: in vivo, mouse; conditions: antibodies 30 mg/kg, lapatinib 100 mg/kg oral
Method: (§1) Orthotopic xenografts were established by injecting 1×10^7 cells per mouse (suspended in 50% matrigel) into the mammary fat pad on the right flank of 4 to 6-week-old athymic nu/nu mice. Estrogen pellets (0.36 mg) were placed under the skin of the left flank 1-2 days before cell injection. […] Lapatinib was administered by oral gavaging at 100 mg per kilogram body weight. Caliper measurements were used to calculate tumor volumes using the formula: tumor volume=π÷6(length×width×width) • for tumors grown in mice.

[2] = system: MDA-MB-361 xenograft tumors; test: Orthotopic human MDA-MB-361 breast cancer xenograft model; assay type: in vivo, mouse; conditions: 2C2-YTE 30 mg/kg, trastuzumab and rhuMAb 2C4 10 mg/kg, lapatinib 100 mg/kg twice daily
Method: as §1, with “5×10^6” for “1×10^7”

MCF-7 xenograft tumors = test: Orthotopic human MCF-7 breast cancer xenograft model; assay type: in vivo, mouse; conditions: antibodies 10 mg/kg, paclitaxel 10 mg/kg i.v. every second day for ten days
Method: as §1, with “Human MCF-7 breast cancer cells were maintained at 37° C. in a 5% CO2 incubator in Optimem medium containing glutamax, 2.4/L sodium bicarbonate, Hepes and 5% fetal bovine serum. Orthotopic” for “Orthotopic”, “5×10^6” for “1×10^7”, “Paclitaxel” for “Lapatinib”, “intravenously” for “by oral gavaging”, “10” for “100”

SkBR3 cells = test: CDC assay with human serum as source of complement; assay type: cell-based; conditions: any concentration, data not shown
Excerpt: ADCC is one recognized way through which a monoclonal antibody can confer its anti-tumor efficacy in vivo.

Daudi cells = test: CDC assay against Daudi cells; assay type: cell-based; conditions: CD20-expressing cells, data not shown
Method: ADCC is one recognized way through which a monoclonal antibody can confer its anti-tumor efficacy in vivo. […] 2C2-YTE was tested in CDC assays using human serum as a source of complement.

| Compound | HRG ligand-dependent signaling (HER3, pHER3, pAKT) [1] | Anti-tumor efficacy [2] | other results |
| --- | --- | --- | --- |
| COc1cc2ncnc(Nc3ccc(F)c(Cl)c3)c2cc1OCCCN1CCOCC1 [gefitinib] | no effect |  |  |
| CS(=O)(=O)CCNCc1ccc(-c2ccc3ncnc(Nc4ccc(OCc5cccc(F)c5)c(Cl)c4)c3c2)o1 [lapatinib] |  | showed anti-tumor efficacy | Anti-tumor efficacy (BT-474 xenograft tumors): tumor stasis |
| CC(=O)O[C@H]1C(=O)[C@@]2(C)[C@H]([C@H](OC(=O)c3ccccc3)[C@]3(O)C[C@H](OC(=O)[C@H](O)[C@@H](NC(=O)c4ccccc4)c4ccccc4)C(C)=C1C3(C)C)[C@]1(OC(C)=O)CO[C@@H]1C[C@@H]2O [paclitaxel] |  |  | Anti-tumor efficacy (MCF-7 xenograft tumors): clear anti-tumor efficacy |
| pertuzumab [rhuMAb 2C4] | inhibit HRG ligand-dependent signaling | showed anti-tumor efficacy |  |
| rituximab [reference compound] |  |  | CDC activity (SkBR3 cells): None of the antibodies including 2C2-YTE showed any detectable CDC activity; CDC activity (Daudi cells): substantial cell-kill activity |
